Assay results taken from patent publication US8951993B2, “Phosphorus containing compounds as protein kinase inhibitors” (Jiangsu Hansoh Pharmaceutical Co., Ltd., priority 2011, dated 2015).

Key:
H2228 = assay: Cell proliferation assay (MTS / BrdU), H2228; format: cell-based; conditions: Homo sapiens, NCI-H2228; 72 hours, 2% FBS
Protocol: (§1) Karpas299 and SU-DHL-1 cells were purchased from Deutsche Sammlung von Mikroorganismen and Zellkulturen (Germany). H2228 was purchased from American Type Culture Collection (USA). All cells were cultured in the recommended medium and serum concentration. Cells were maintained at 37° C. in a humidified atmosphere with 5% CO2. For ALK kinase phosphorylation, cells were seeded in 96-well plates overnight in medium supplemented with 10% fetal bovine serum […]. After 24 hours, the medium was removed and cells were cultured in serum-free medium at 37° C. in the presence of various concentrations of the test articles for 1 hour. After incubation with the tested articles, cells were washed once with HBSS supplemented with 1 mM Na3VO4 and protein lysates were generated. Subsequently, phosphorylation of ALK was assessed by a sandwich ELISA method using an immobilized anti-total-ALK antibody and an anti-phospho-ALK antibody (pY1604) as a detection antibody. IC50 value was calculated using median-effect method. (Chou 2006).
(§2) For cell proliferation assay, cells were seeded in 96-well pates at low density at 37° C. in medium supplemented with 10% FBS and after 24 hours were switched to low serum medium (2% FBS). Cells were further incubated in the presence of the test articles at various concentrations at 37° C. for 72 hours. Two assays were employed to determine the relative cell numbers. One is a 3-(4,5-dimethylthiazol-2-yl)-5-(3-carboxymethoxyphenyl)-2-(4-sulfophenyl)-2H-tetrazolium (MTS) assay using a CellTiter 96® Aqueous Non-Radioactive Cell Proliferation kit (Promega), and the other is a BrdU incorporation assay using a DELFIA® Cell Proliferation Kit (Perkin Elmer). IC50 value was calculated using median-effect method (Chou 2006).

ALK [1] = biological target: T1, ALK (Homo sapiens, UniProt Q9UM73); assay: ALK enzyme activity assay (HTRF KinEASE); format: biochemical; parameters: purchased Millipore Company (Billerica, Mass., USA); conditions: ATP 25 μM, 30° C. 30 minutes
Protocol: ALK Enzyme Activity Assay:
ALK kinase was purchased from Millipore Company (Billerica, Mass., USA). HTRF®KinEASET™ was purchased from Cisbio Company (Bedford, Mass., USA). The assay was conducted according to the procedure provided in the assay kit. In brief, incubation was carried out in the kinase buffer containing ALK (0.3 ng/μL), ATP (25 μM), TK substrate-biotin (10 μM), DTT (1 mM), MgCl2 (5 mM), MnCl2 (5 mM) in the presence of the tested articles at various concentrations in 384-well plate at 30° C. for 30 minutes. The reaction was stopped by addition of Sa-XL665 in EDTA solution, and the phosphorylated substrate was detected with a proprietary phospho-specific monoclonal antibody labeled with Eu^3+-Cryptate and a proprietary biotinylated kinase substrate detected using XL665 labeled streptavidin. IC50 value was calculated using median-effect method (Chou 2006).
Target sequence in this assay (Q9UM73 19-1620): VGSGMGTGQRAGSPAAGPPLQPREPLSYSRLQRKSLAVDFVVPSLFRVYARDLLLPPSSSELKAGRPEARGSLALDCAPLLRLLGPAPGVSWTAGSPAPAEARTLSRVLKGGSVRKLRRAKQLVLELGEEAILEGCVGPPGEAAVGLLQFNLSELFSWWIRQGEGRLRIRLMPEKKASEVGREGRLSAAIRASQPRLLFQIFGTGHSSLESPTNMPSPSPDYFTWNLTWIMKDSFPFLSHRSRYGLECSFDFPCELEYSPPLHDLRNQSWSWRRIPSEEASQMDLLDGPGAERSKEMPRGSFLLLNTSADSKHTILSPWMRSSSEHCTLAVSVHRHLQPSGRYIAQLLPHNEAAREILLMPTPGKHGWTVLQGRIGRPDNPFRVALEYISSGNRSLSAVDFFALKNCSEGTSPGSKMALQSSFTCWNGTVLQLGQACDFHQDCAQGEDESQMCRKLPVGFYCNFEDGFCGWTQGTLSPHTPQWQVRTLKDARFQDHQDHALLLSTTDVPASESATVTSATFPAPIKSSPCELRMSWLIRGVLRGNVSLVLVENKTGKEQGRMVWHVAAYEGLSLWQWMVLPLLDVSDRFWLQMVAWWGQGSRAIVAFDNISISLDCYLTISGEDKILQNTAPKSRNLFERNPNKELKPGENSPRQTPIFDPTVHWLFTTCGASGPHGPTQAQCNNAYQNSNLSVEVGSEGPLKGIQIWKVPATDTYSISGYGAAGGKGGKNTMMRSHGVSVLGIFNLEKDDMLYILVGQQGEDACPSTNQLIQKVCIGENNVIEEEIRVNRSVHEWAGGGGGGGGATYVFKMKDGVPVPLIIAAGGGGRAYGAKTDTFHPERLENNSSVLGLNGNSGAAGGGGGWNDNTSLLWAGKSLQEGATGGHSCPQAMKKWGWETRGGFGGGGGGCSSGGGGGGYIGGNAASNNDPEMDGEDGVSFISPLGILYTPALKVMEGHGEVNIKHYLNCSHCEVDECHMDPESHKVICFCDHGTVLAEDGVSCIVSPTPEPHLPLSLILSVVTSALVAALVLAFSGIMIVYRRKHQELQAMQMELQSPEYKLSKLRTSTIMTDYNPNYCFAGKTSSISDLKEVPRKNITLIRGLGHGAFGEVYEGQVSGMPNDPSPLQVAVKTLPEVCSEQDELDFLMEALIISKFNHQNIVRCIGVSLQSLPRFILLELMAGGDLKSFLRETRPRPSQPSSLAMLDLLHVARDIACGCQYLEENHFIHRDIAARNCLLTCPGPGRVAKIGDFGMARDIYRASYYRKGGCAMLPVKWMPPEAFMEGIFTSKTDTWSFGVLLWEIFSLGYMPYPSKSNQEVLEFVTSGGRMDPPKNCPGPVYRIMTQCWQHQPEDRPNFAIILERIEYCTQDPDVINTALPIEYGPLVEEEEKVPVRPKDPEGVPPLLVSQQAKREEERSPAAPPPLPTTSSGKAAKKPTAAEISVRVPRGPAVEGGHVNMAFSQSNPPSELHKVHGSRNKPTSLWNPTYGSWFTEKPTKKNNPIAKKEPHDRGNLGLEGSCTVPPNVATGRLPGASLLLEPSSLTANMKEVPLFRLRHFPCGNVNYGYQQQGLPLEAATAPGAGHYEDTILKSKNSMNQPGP

ALK [2] = biological target: T1, ALK; assay: Inhibition of ALK phosphorylation (sandwich ELISA, pY1604), cell line not given; format: cell-based; parameters: fused on or other part: Q9HC35 (Echinoderm microtubule-associated protein-like 4); conditions: 1 hour, serum-free
Protocol: as §1
Target sequence in this assay (Q9UM73 1058-1620 limits assumed): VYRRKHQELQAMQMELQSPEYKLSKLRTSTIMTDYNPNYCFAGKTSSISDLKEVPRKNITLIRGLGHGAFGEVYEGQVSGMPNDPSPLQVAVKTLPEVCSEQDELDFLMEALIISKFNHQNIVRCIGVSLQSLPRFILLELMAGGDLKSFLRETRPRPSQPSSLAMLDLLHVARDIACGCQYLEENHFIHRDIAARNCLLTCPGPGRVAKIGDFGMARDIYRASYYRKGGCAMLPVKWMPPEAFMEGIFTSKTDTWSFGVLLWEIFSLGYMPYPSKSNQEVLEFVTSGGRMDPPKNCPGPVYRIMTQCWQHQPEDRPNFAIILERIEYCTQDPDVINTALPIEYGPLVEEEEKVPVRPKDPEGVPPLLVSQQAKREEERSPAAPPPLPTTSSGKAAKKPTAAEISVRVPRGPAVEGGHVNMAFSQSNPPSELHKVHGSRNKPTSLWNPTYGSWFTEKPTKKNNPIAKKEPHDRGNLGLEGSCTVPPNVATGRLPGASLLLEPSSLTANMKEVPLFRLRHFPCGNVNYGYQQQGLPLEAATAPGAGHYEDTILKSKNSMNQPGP

SU-DHL-1 = assay: Cell proliferation assay (MTS / BrdU), SU-DHL-1; format: cell-based; conditions: Homo sapiens, 72 hours, 2% FBS
Protocol: as §1, §2

Karpas299 = assay: Cell proliferation assay (MTS / BrdU), Karpas299; format: cell-based; conditions: Homo sapiens, KARPAS-299; 72 hours, 2% FBS
Protocol: as §1, §2

[3] = Pharmacokinetic assay, intravenous and oral administration; format: in vivo, Sprague-Dawley rats or beagle dogs; conditions: plasma
Protocol: The tested articles were given to Sprague-Dawley rats or beagle dogs by intravenous and oral administration. Plasma samples were prepared from blood samples which were collected at various time points. The plasma concentrations of the tested articles were determined by specific LC-MS/MS analytical methods. Pharmacokinetic parameters were calculated with WinNonlin®.

Row | Structure (SMILES) | IC50 (ALK [1]) [nM] | IC50 (SU-DHL-1) [nM] | also measured
1 | CC(Oc1cc(-c2cnn(C3CCN(CP(C)(C)=O)CC3)c2)cnc1N)c1c(Cl)ccc(F)c1Cl (stereo not drawn) [Example 2, 3-[1-(2,6-dichloro-3-fluoro-phenyl)ethoxy]-5-[1-[1-(dimethylphosphorylmethyl)-4-piperidyl]pyrazol-4-yl]pyridin-2-amine] | < 100 | – | IC50 (H2228): 1000 to 5000 nM; IC50 (ALK [2]): < 500 nM
2 | CC(Oc1cc(-c2cncc(P(C)(C)=O)c2)cnc1N)c1c(Cl)ccc(F)c1Cl (stereo not drawn) [Example 6, 3-[1-(2,6-dichloro-3-fluoro-phenyl)ethoxy]-5-(5-dimethylphosphoryl-3-pyridyl)pyridin-2-amine] | 100 to 500 | 1000 to 5000 | IC50 (H2228): 100 to 500 nM
3 | CC(Oc1cc(-c2ccc(P(C)(C)=O)cc2F)cnc1N)c1c(Cl)ccc(F)c1Cl (stereo not drawn) [Example 13, 3-[1-(2,6-dichloro-3-fluoro-phenyl)ethoxy]-5-(4-dimethylphosphoryl-2-fluoro-phenyl)pyridin-2-amine] | < 100 | 100 to 500 | IC50 (Karpas299): < 100 nM; half-life ([3]; after oral administration in rats or dogs): > 180 min; bioavailability ([3]; oral administration in rats or dogs, read-out: oral bioavailabilty): > 20%
4 | CC(Oc1cc(-c2ccc(CN(CP(C)(C)=O)CP(C)(C)=O)cc2)cnc1N)c1c(Cl)ccc(F)c1Cl (stereo not drawn) [Example 4, 5-[4-[(bis(dimethylphosphorylmethyl)amino)methyl]phenyl]-3-[1-(2,6-dichloro-3-fluoro-phenyl)ethoxy]pyridin-2-amine] | 100 to 500 | – | IC50 (H2228): 1000 to 5000 nM
5 | CC(Oc1cc(-c2ccc(P(C)(C)=O)c3ccccc23)cnc1N)c1c(Cl)ccc(F)c1Cl (stereo not drawn) [Example 9, 3-[1-(2,6-dichloro-3-fluoro-phenyl)ethoxy]-5-(4-dimethylphosphoryl-1-naphthyl)pyridin-2-amine] | 1000 to 5000 | – | –
6 | CC(Oc1cc(-c2ccc(P(C)(C)=O)c(F)c2)cnc1N)c1c(Cl)ccc(F)c1Cl (stereo not drawn) [Example 14, 3-[1-(2,6-dichloro-3-fluoro-phenyl)ethoxy]-5-(4-dimethylphosphoryl-3-fluoro-phenyl)pyridin-2-amine] | 1000 to 5000 | 1000 to 5000 | –
7 | CC(Oc1cc(-c2ccc(P(C)(C)=O)cc2C(F)(F)F)cnc1N)c1c(Cl)ccc(F)c1Cl (stereo not drawn) [Example 15, 3-[1-(2,6-dichloro-3-fluoro-phenyl)ethoxy]-5-[4-dimethylphosphoryl-2-(trifluoromethyl)phenyl]pyridin-2-amine] | 500 to 1000 | – | –
8 | CC(Oc1cc(-c2ccc(P(C)(C)=O)cc2Cl)cnc1N)c1c(Cl)ccc(F)c1Cl (stereo not drawn) [Example 19, 5-(2-chloro-4-dimethylphosphoryl-phenyl)-3-[1-(2,6-dichloro-3-fluoro-phenyl)ethoxy]pyridin-2-amine] | 100 to 500 | 100 to 500 | –
9 | CC(Oc1cc(-c2cnn(CP(C)(C)=O)c2)cnc1N)c1c(Cl)ccc(F)c1Cl (stereo not drawn) [Example 3, 3-[1-(2,6-dichloro-3-fluoro-phenyl)ethoxy]-5-[1-(dimethylphosphorylmethyl)pyrazol-4-yl]pyridin-2-amine] | 100 to 500 | – | –
10 | CC(Oc1cc(-c2ccc(COP(C)(C)=O)cc2)cnc1N)c1c(Cl)ccc(F)c1Cl (stereo not drawn) [Example 7, 3-[1-(2,6-dichloro-3-fluoro-phenyl)ethoxy]-5-[4-(dimethylphosphoryloxymethyl)phenyl]pyridin-2-amine] | 100 to 500 | – | –
11 | CC(Oc1cc(-c2ccc(P(C)(C)=O)cc2)cnc1N)c1cc(F)ccc1Cl (stereo not drawn) [Example 22, 3-[1-(2-chloro-5-fluoro-phenyl)ethoxy]-5-(4-dimethylphosphorylphenyl)pyridin-2-amine] | 100 to 500 | < 100 | –
12 | CC(Oc1cc(-c2ccc(P(C)(C)=O)cn2)cnc1N)c1c(Cl)ccc(F)c1Cl (stereo not drawn) [Example 18, 3-[1-(2,6-dichloro-3-fluoro-phenyl)ethoxy]-5-(5-dimethylphosphoryl-2-pyridyl)pyridin-2-amine] | 100 to 500 | 100 to 500 | IC50 (Karpas299): 100 to 500 nM
13 | CC(Oc1cc(-c2ccc(P(C)(C)=O)nc2)cnc1N)c1c(Cl)ccc(F)c1Cl (stereo not drawn) [Example 16, 3-[1-(2,6-dichloro-3-fluoro-phenyl)ethoxy]-5-(6-dimethylphosphoryl-3-pyridyl)pyridin-2-amine] | 500 to 1000 | 1000 to 5000 | –
14 | CC(Oc1cc(-c2ccc(P(C)(C)=O)cc2)cnc1N)c1cc(Cl)ccc1Cl (stereo not drawn) [Example 21, 3-[1-(2,5-dichlorophenyl)ethoxy]-5-(4-dimethylphosphorylphenyl)pyridin-2-amine] | 100 to 500 | < 100 | –
15 | CC(Oc1nc(-c2ccc(P(C)(C)=O)cc2)cnc1N)c1c(Cl)ccc(F)c1Cl (stereo not drawn) [Example 11, 3-[1-(2,6-dichloro-3-fluoro-phenyl)ethoxy]-5-(4-dimethylphosphorylphenyl)pyrazin-2-amine] | 100 to 500 | 100 to 500 | –
16 | CCOP(=O)(OCC)c1ccc(-c2cnc(N)c(O[C@H](C)c3c(Cl)ccc(F)c3Cl)c2)cc1 [Example 28, 3-[(1R)-1-2-(2,6-dichloro-3-fluoro-phenyl)ethoxy]-5-(4-diethoxyphosphorylphenyl)pyridine-2-amine] | 100 to 500 | 1000 to 5000 | –
17 | C[C@@H](Oc1cc(-c2ccc(P(=O)(O)O)cc2)cnc1N)c1c(Cl)ccc(F)c1Cl [Example 29, [4-(6-amino-5-[(1R)-1-(2,6-dichloro-3-fluoro-phenyl)ethoxyl]-3-pyridyl]phenyl]phosphonic acid] | < 100 | 1000 to 5000 | –
18 | CC(Oc1cc(-c2ccc(P(C)(C)=O)cc2OC(F)(F)F)cnc1N)c1c(Cl)ccc(F)c1Cl (stereo not drawn) [Example 20, 3-[1-(2,6-dichloro-3-fluoro-phenyl)ethoxy]-5-[4-dimethylphosphoryl-2-(trifluoromethoxy)phenyl]pyridin-2-amine] | 500 to 1000 | 100 to 500 | –
19 | COc1cc(-c2cnc(N)c(OC(C)c3c(Cl)ccc(F)c3Cl)c2)c(F)cc1P(C)(C)=O (stereo not drawn) [Example 10, 3-[1-(2,6-dichloro-3-fluoro-phenyl)ethoxy]-5-(4-dimethylphosphoryl-2-fluoro-5-methoxy-phenyl)pyridin-2-amine] | 1000 to 5000 | – | –
20 | COc1cc(-c2cnc(N)c(OC(C)c3c(Cl)ccc(F)c3Cl)c2)ccc1P(C)(C)=O (stereo not drawn) [Example 12, 3-[1-(2,6-dichloro-3-fluoro-phenyl)ethoxy]-5-(4-dimethylphosphoryl-3-methoxy-phenyl)pyridin-2-amine] | < 100 | – | –
21 | CC(Oc1cc(-c2ccc(P(=O)(O)O)cc2)cnc1N)c1cc(F)ccc1Cl (stereo not drawn) [Example 27, [4-(6-amino-5-[1-(2-chloro-5-fluoro-phenyl)ethoxyl]-3-pyridyl]phenyl]phosphonic acid] | < 100 | 1000 to 5000 | –
22 | CCOP(=O)(OCC)c1ccc(-c2cnc(N)c(OC(C)c3cc(F)ccc3Cl)c2)cc1 (stereo not drawn) [Example 26, 3-[1-2-(2-chloro-5-fluoro-phenyl)ethoxy]-5-(4-diethoxyphosphorylphenyl)pyridine-2-amine] | 500 to 1000 | – | –
23 | CC(Oc1cc(-c2ccc(P(C)(C)=O)cc2O)cnc1N)c1c(Cl)ccc(F)c1Cl (stereo not drawn) [Example 17, 2-[6-amino-5-[1-(2,6-dichloro-3-fluoro-phenyl)ethoxy]-3-pyridyl]-5-dimethylphosphoryl-phenol] | 100 to 500 | < 100 | –
24 | CC(Oc1cc(-c2ccc(CNCP(C)(C)=O)cc2)cnc1N)c1c(Cl)ccc(F)c1Cl (stereo not drawn) [Example 5, 3-[1-(2,6-dichloro-3-fluoro-phenyl)ethoxy]-5-[4-[(dimethylphosphorylmethylamino)methyl]phenyl]pyridin-2-amine] | 100 to 500 | 1000 to 5000 | IC50 (H2228): 100 to 500 nM
